Results reported in patent publication US4061740A, “Liquid compositions containing a polyethylene glycol safener and an organophosphorus pesticide” (priority 1976, dated 1977).

Tested on: Root-knot Nematode (Meloidogyne incognita)
Test: Control of root-knot nematode on tomato in the greenhouse
Type: in vivo, Meloidogyne incognita (on tomato, Lycopersicon esculentum)
Source text: Evaluation of a liquid formulation consisting of a solution of 2-diethoxyphosphinylimino-1,3-dithietane in polyethylene glycol for the control of root-knot nematode (Meloidogyne incognita) on tomato in the greenhouse.
1. 2-Diethoxyphosphinylimino-1,3-dithietane, 91% real. (Active ingredient; a.i.)
2. Liquid formulation consisting of 20.9%, by weight, of a.i. and 79.1%, by weight, of polyethylene glycol of an average molecular weight of 400.
Tomato (Lycopersicon esculentum; Cv. Bonny Best).
Root-knot Nematode (Meloidogyne incognita) inoculum. [formula] 2-Diethoxyphosphinylimino-1,3-dithietane at 0.75 mg, 1.5 mg and 3.0 mg/liter of soil. Polyethylene glycol blank at 14.4 mg/liter of soil.
All compounds are made up as acetone solutions. One liter of moist potting soil is placed in a suitable stainless steel beaker. One ml of candidate solution is distributed, drop by drop, over the surface of the soil. The beaker is then capped and placed on an off-center rotary mixer and mixed for 2 minutes (about 60 revolutions). After mixing, the soil is divided between two 0.5 liter paper cups by filling the cups half full of soil, then distributing 25 ml root-knot nematode inoculum on the soil and filling the remainder of the container with treated soil. Seedling tomato plants are transplanted into the cups of soil the same day, watered and removed to the greenhouse. After about 4 weeks, the tomato plants are carefully removed from the containers, the soil washed from the roots, and the roots are then examined for nematode galling.
The roots are indexed for galling by the following system: […]

Which results are given for `CCOP(=O)(N=C1SCS1)OCC` [Formulation 1, 2-Diethoxyphosphinylimino-1,3-dithietane]?
Root-knot index, Average of 3 Replicates (0.75 mg/l active ingredient): 7.0; Root-knot index (0.75 mg/l active ingredient, replicate 1): 8 (61-70% of roots galled); Root-knot index (0.75 mg/l active ingredient, replicate 2): 8 (61-70% of roots galled); Root-knot index (0.75 mg/l active ingredient, replicate 3): 5 (31-40% of roots galled); protection of the tomato roots from the root-knot nematode (0.75 mg/l of soil): poor; Root-knot index, Average of 3 Replicates (1.5 mg/l active ingredient): 4.7; Root-knot index (1.5 mg/l active ingredient, replicate 1): 6 (41-50% of roots galled); Root-knot index (1.5 mg/l active ingredient, replicate 2): 6 (41-50% of roots galled); Root-knot index (1.5 mg/l active ingredient, replicate 3): 2 (6-10% of roots galled); protection of the tomato roots from the root-knot nematode (1.5 mg/l of soil): poor; Root-knot index (3.0 mg/l active ingredient, replicate 1): 0; Root-knot index (3.0 mg/l active ingredient, replicate 2): 0; Root-knot index (3.0 mg/l active ingredient, replicate 3): T (less than 1% of roots with galls.); protection of the tomato roots from the root-knot nematode (3.0 mg/l of soil): excellent
